Laboratory results: patent US10450326B2, “Thiazolopyrimidinone compounds and preparation methods and use thereof” (PEKING UNIVERSITY, priority 2015, dated 2019)

Biological target: T1, α7 nAChR (Homo sapiens, UniProt P36544)
T1 construct: expressed in transfected cells; host or cells: Xenopus oocytes (cRNA injection)
Test: α7 nAChR positive allosteric modulator activity assay, voltage clamp in Xenopus oocytes with 100 μM ACh
Format: cell-based
Details: for activity at 10 µM: at 10 μM compound, current induced by 100 μM ACh, Xenopus oocytes expressing α7 nAChR, read-out: Max Mod (%, at 10 μM); for EC50: potentiation of current induced by 100 μM ACh, Hill equation fit
Method: The experimental process was as follows:
(1) Xenopus oocytes were injected with cRNA encoding α7 nAChR in order to express α7 nAChR on the cell membrane successfully;
(2) 100 μM ACh alone was added, and the α7 nAChR characteristic current caused by it was recorded as a control;
(5) The oocytes were incubated for 1 min with 10 μM compound, then 10 µM compound and 100 μM ACh were added simultaneously and the current induced by ACh was recorded at this time;
(6) The differences between the two currents in terms of peak intensity and duration were compared, with the ratio of peak intensity of the two currents representing the adjustment effect (Enhance Rate), in order to determine whether the compound had PAM activity, if the activity was good, then the subsequent test was carried out;
(7) Concentration gradient was set and the effects of compounds at different concentrations on the α7 nAChR characteristic current induced by 100 μM ACh were evaluated. Several determinations were carried out at the same concentration, and the results were presented in the form of “mean±standard deviation”;
(8) The EC50 (median maximum effect concentration) values and Max mod (the current amplitude caused by the maximal degree of adjustable endogenous agonist acetylcholine) values of the compounds and other activity data were obtained by Hill equation Inormalized=Emax/(1+(EC50/C)nH).
The amplitude of the peak current is only normalized by the amplitude produced by 100 μM ACh and different concentrations of LD486. […] It can be seen from FIG. 3 that the Hill equation is used to fit the dose-response curve and calculate the kinetic parameters.

T1 sequence (P36544 23-502): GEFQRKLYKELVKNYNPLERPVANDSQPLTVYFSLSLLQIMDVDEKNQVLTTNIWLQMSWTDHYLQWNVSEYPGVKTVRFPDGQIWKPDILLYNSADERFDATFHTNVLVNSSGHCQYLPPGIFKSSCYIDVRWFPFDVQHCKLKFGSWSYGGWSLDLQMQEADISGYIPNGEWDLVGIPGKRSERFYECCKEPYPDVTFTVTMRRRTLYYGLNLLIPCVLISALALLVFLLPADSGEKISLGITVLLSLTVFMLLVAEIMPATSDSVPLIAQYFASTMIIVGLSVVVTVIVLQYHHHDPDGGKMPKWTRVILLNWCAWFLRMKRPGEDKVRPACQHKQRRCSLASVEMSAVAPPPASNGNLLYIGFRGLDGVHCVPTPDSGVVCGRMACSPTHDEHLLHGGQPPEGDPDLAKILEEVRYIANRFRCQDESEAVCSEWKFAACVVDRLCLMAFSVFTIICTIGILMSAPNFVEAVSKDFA

Row | SMILES | activity at 10 µM [%] | EC50 [µM]
1 | Cc1nc(Cl)cc(Nc2nc3nnn(-c4c(C)cccc4Cl)c(=O)c3s2)n1 [JWX-A3N, 6-((6-Chloro-2-methylpyrimidin-4-yl)amino)-3-(2-chloro-6-methylphenyl)thiazolo[4,5-d][1,2,3]triazin-4(3H)-one] | 110 | –
2 | Cc1ccccc1Nc1nc2ncn(-c3c(C)cccc3Cl)c(=O)c2s1 [JWX-A0602, 6-(2-Chloro-6-methylphenyl)-2-(o-tolylamino)thiazolo[4,5-d]pyrimidin-7(6H)-one] | 300 | 10
3 | Cc1cccc(Cl)c1-n1cnc2nc(Nc3ccccc3F)sc2c1=O [JWX-A0611, 6-(2-Chloro-6-methylphenyl)-2-((2-fluorophenyl)amino)thiazolo[4,5-d]pyrimidin-7(6H)-one] | 200 | 10
4 | Cc1cccc(Cl)c1-n1cnc2nc(NC(=O)c3ccc(F)cc3)sc2c1=O [JWX-A0617, N-(6-(2-Chloro-6-methylphenyl)-7-oxo-6,7-dihydrothiazolo[4,5-d]pyrimidin-2-yl)-4-fluorobenzamide] | 150 | 10
5 | Cc1nc(Nc2nc3ncn(-c4c(C)cccc4Cl)c(=O)c3s2)cc(N2CCN(CCO)CC2)n1 [JWX-A0728, 6-(2-Chloro-6-methylphenyl)-2-((6-(4-(2-hydroxyethyl)piperazin-1-yl)-2-methylpyrimidin-4-yl)amino)thiazolo[4,5-d]pyrimidin-7(6H)-one] | 110 | –
6 | Cc1cccc(Cl)c1-n1cnc2nc(Nc3ccccc3)sc2c1=O [JWX-A0824, 6-(2-Chloro-6-methylphenyl)-2-(phenylamino)thiazolo[4,5-d]pyrimidin-7(6H)-one] | 300 | 10
7 | Cc1cccc(Cl)c1-n1cnc2nc(Nc3ccccn3)sc2c1=O [JWX-A0828, 6-(2-Chloro-6-methylphenyl)-2-(pyridin-2-ylamino)thiazolo[4,5-d]pyrimidin-7(6H)-one] | 110 | –
8 | Cc1cccc(Cl)c1-n1cnc2nc(O)sc2c1=O [JWX-A0903, 6-(2-Chloro-6-methylphenyl)-2-hydroxythiazolo[4,5-d]pyrimidin-7(6H)-one] | 110 | –
9 | Cc1cccc(Cl)c1-n1cnc2nc(Nc3cc(Cl)ncn3)sc2c1=O [JWX-A0912, 6-(2-Chloro-6-methylphenyl)-2-((6-chloropyrimidin-4-yl)amino)thiazolo[4,5-d]pyrimidin-7(6H)-one] | 200 | 10
10 | Cc1cccc(Cl)c1-n1cnc2nc(Nc3ccc(Cl)nn3)sc2c1=O [JWX-A0918, 6-(2-Chloro-6-methylphenyl)-2-((6-chloropyridazin-3-yl)amino)thiazolo[4,5-d]pyrimidin-7(6H)-one] | 110 | –
11 | Cc1nc(Nc2nc3ncn(-c4c(C)cccc4Cl)c(=O)c3s2)cc(N2CCN(C)CC2)n1 [JWX-A1022, 6-(2-Chloro-6-methylphenyl)-2-((2-methyl-6-(4-methylpiperazin-1-yl)pyrimidin-4-yl)amino)thiazolo[4,5-d]pyrimidin-7(6H)-one] | 110 | –
12 | COc1ccc(Nc2nc3ncn(-c4c(C)cccc4Cl)c(=O)c3s2)cc1 [JWX-A1030, 6-(2-Chloro-6-methylphenyl)-2-((4-methoxyphenyl)amino)thiazolo[4,5-d]pyrimidin-7(6H)-one] | 200 | 10
13 | Cc1cccc(Cl)c1-n1cnc2nc(Nc3ccc(Cl)cc3)sc2c1=O [JWX-A1104, 6-(2-Chloro-6-methylphenyl)-2-((4-chlorophenyl)amino)thiazolo[4,5-d]pyrimidin-7(6H)-one] | 200 | 10
14 | Cc1cccc(Cl)c1-n1cnc2nc(Nc3ccc(Br)cc3)sc2c1=O [JWX-A1105, 6-(2-chloro-6-methylphenyl)-2-((4-Bromophenyl)amino)-thiazolo[4,5-d]pyrimidin-7(6H)-one] | 150 | 10
15 | COc1cccc(Nc2nc3ncn(-c4c(C)cccc4Cl)c(=O)c3s2)c1 [JWX-A1106, 6-(2-chloro-6-methylphenyl)-2-((3-methoxyphenyl)amino)thiazolo[4,5-d]pyrimidin-7(6H)-one] | 150 | 10
16 | Cc1cccc(Cl)c1-n1cnc2nc(Nc3cccc(Br)c3)sc2c1=O [JWX-A1113, 6-(2-chloro-6-methylphenyl)-2-((3-Bromophenyl)amino)-thiazolo[4,5-d]pyrimidin-7(6H)-one] | 200 | 10
17 | Cc1cccc(Cl)c1-n1cnc2nc(N(C)c3ccccc3)sc2c1=O [JWX-A1114, 6-(2-Chloro-6-methylphenyl)-2-(methyl(phenyl)amino)thiazolo[4,5-d]pyrimidin-7(6H)-one] | 150 | 10
18 | Cc1cccc(Cl)c1-n1cnc2nc(Nc3cccc(Cl)c3)sc2c1=O [JWX-A1116, 6-(2-Chloro-6-methylphenyl)-2-((3-chlorophenyl)amino)thiazolo[4,5-d]pyrimidin-7(6H)-one] | 300 | 10
19 | Cc1cccc(Cl)c1-n1cnc2nc(Nc3ccc(F)cc3)sc2c1=O [JWX-A1119, 6-(2-Chloro-6-methylphenyl)-2-((4-fluorophenyl)amino)thiazolo[4,5-d]pyrimidin-7(6H)-one] | 250 | 10
20 | Cc1cccc(Cl)c1-n1cnc2nc(NCc3ccccc3)sc2c1=O [JWX-A1228, 6-(2-chloro-6-methylphenyl)-2-(Benzylamino)thiazolo[4,5-d]pyrimidin-7(6H)-one] | 110 | –
21 | CCCNc1nc2ncn(-c3c(C)cccc3Cl)c(=O)c2s1 [JWX-A1229, 6-(2-Chloro-6-methylphenyl)-2-(n-propylamino)thiazolo[4,5-d]pyrimidin-7(6H)-one] | 110 | –
22 | Cc1cccc(Cl)c1-n1cnc2nc(Nc3ccc(F)c(Cl)c3)sc2c1=O [JWX-A-C0104, 6-(2-chloro-6-methylphenyl)-2-((3-chloro-4-fluorophenyl)amino)thiazolo[4,5-d]pyrimidin-7(6H)-one] | 500 | 10

More lines, now with the values ahead:

Row | activity at 10 µM [%] | EC50 [µM] | SMILES
23 | – | 3.39 | Cc1ccc(Nc2nc3ncn(-c4c(C)cccc4Cl)c(=O)c3s2)cc1F [JWX-A0108, 6-(2-Chloro-6-methylphenyl)-2-((3-fluoro-4-methylphenyl)amino)thiazolo[4,5-d]pyrimidin-7(6H)-one]
24 | 200 | 10 | Cc1cccc(Cl)c1-n1cnc2nc(NC(=O)c3ccccc3)sc2c1=O [JWX-A0121, N-(6-(2-Chloro-6-methylphenyl)-7-oxo-6,7-dihydrothiazolo[4,5-d]pyrimidin-2-yl)benzamide]
25 | 450 | 10 | Cc1ccc(C(=O)Nc2nc3ncn(-c4c(C)cccc4Cl)c(=O)c3s2)cc1 [JWX-A0310, N-(6-(2-Chloro-6-methylphenyl)-7-oxo-6,7-dihydrothiazolo[4,5-d]pyrimidin-2-yl)-4-methylbenzamide]
26 | 630 | 10 | COc1ccc(C(=O)Nc2nc3ncn(-c4c(C)cccc4Cl)c(=O)c3s2)cc1 [JWX-A0312, N-(6-(2-Chloro-6-methylphenyl)-7-oxo-6,7-dihydrothiazolo[4,5-d]pyrimidin-2-yl)-4-methoxybenzamide]
27 | 650 | 6.99 | Cc1ccc(Nc2nc3ncn(-c4c(C)cccc4Cl)c(=O)c3s2)cc1C [JWX-A0315, 6-(2-Chloro-6-methylphenyl)-2-((3,4-dimethylphenyl)amino)thiazolo[4,5-d]pyrimidin-7(6H)-one]
28 | 600 | 3.15 | Cc1cc(Nc2nc3ncn(-c4c(C)cccc4Cl)c(=O)c3s2)cc(C)c1C [JWX-A0322, 6-(2-Chloro-6-methylphenyl)-2-((3,4,5-trimethylphenyl)amino)thiazolo[4,5-d]pyrimidin-7(6H)-one]
29 | 150 | 10 | Cc1ccc(Nc2nc3ncn(-c4ccccc4C)c(=O)c3s2)cc1 [JWX-A0414, 6-(o-Tolyl)-2-(p-tolylamino)thiazolo[4,5-d]pyrimidin-7(6H)-one]
30 | 680 | 10 | Cc1ccc(Nc2nc3ncn(-c4ccccc4Cl)c(=O)c3s2)cc1 [JWX-A0415, 6-(2-Chlorophenyl)-2-(p-tolylamino) thiazolo[4,5-d]pyrimidin-7(6H)-one]
31 | – | 7.47 | Cc1ccc(Nc2nc3ncn(-c4c(C)cccc4Cl)c(=O)c3s2)cc1 [JWX-A1029, 6-(2-Chloro-6-methylphenyl)-2-(p-tolylamino)thiazolo[4,5-d]pyrimidin-7(6H)-one]
32 | – | 8.39 | Cc1cccc(Nc2nc3ncn(-c4c(C)cccc4Cl)c(=O)c3s2)c1 [JWX-A1211, 6-(2-Chloro-6-methylphenyl)-2-(m-tolylamino)thiazolo[4,5-d]pyrimidin-7(6H)-one]
33 | 450 | 7.65 | Cc1cccc(Cl)c1-n1cnc2nc(Nc3cccc(F)c3)sc2c1=O [JWX-A1214, 6-(2-Chloro-6-methylphenyl)-2-((3-fluorophenyl)amino)thiazolo[4,5-d]pyrimidin-7(6H)-one]
34 | – | 1.26 | Cc1cccc(Cl)c1-n1cnc2nc(SCc3ccccc3)sc2c1=O [JWX-A1223, 6-(2-chloro-6-methylphenyl)-2-(Benzylthio)thiazolo[4,5-d]pyrimidin-7(6H)-one]
